# Measured values: PubChem BioAssay AID1259407 (Chemical Carcinogenesis Research Information System (CCRIS), 2018)
# The source made the active and inactive calls. How the calls were made is not given here.
# Test system: CCRIS mutagenicity, Ames/micronucleus/aberration tests
# Assay: CCRIS mutagenicity studies
# [1] = Test System: AMES SALMONELLA TYPHIMURIUM, Strain/Indicator: TA98, Metabolic Activation: RAT, LIVER, S-9, AROCLOR 1254, Method: STANDARD PLATE
# [2] = Test System: AMES SALMONELLA TYPHIMURIUM, Strain/Indicator: TA100, Metabolic Activation: NONE, Method: STANDARD PLATE
# [3] = Test System: AMES SALMONELLA TYPHIMURIUM, Strain/Indicator: TA98, Metabolic Activation: NONE, Method: PREINCUBATION
# [4] = Test System: AMES SALMONELLA TYPHIMURIUM, Strain/Indicator: TA100, Metabolic Activation: NONE, Method: PREINCUBATION
# [5] = End Point: IN VITRO CHROMOSOMAL ABERRATIONS, Test System: CHL CELLS, Metabolic Activation: RAT, LIVER, S-9, SODIUM PHENOBARBITAL AND 5,6-BENZOFLAVONE
# [6] = Test System: UDS RODENT HEPATOCYTES, Strain/Indicator: THY INCORP (NON-S-PHASE), Metabolic Activation: NONE, Method: AUTORADIOGRAPHY
smiles,measurement,setting,value
CCN(CC)C(=O)Nc1ccc(OCC(O)CNC(C)(C)C)c(C(C)=O)c1 (stereo not given),mutagenic call,"Test System: AMES SALMONELLA TYPHIMURIUM, Strain/Indicator: TA97, Metabolic Activation: NONE, Method: STANDARD PLATE",inactive; negative
same,mutagenic call,"Test System: AMES SALMONELLA TYPHIMURIUM, Strain/Indicator: TA98, Metabolic Activation: NONE, Method: STANDARD PLATE",inactive; negative
same,mutagenic call,[1],inactive; negative
same,mutagenic call,"Test System: AMES SALMONELLA TYPHIMURIUM, Strain/Indicator: TA98, Metabolic Activation: RAT, S-9, AROCLOR 1254, Method: STANDARD PLATE",inactive; negative
same,mutagenic call,[2],inactive; negative
same,mutagenic call,"Test System: AMES SALMONELLA TYPHIMURIUM, Strain/Indicator: TA100, Metabolic Activation: RAT, LIVER, S-9, AROCLOR 1254, Method: STANDARD PLATE",inactive; negative
same,mutagenic call,"Test System: AMES SALMONELLA TYPHIMURIUM, Strain/Indicator: TA100, Metabolic Activation: RAT, S-9, AROCLOR 1254, Method: STANDARD PLATE",inactive; negative
same,mutagenic call,"Test System: AMES SALMONELLA TYPHIMURIUM, Strain/Indicator: TA102, Metabolic Activation: NONE, Method: STANDARD PLATE",inactive; negative
same,mutagenic call,"Test System: AMES SALMONELLA TYPHIMURIUM, Strain/Indicator: TA1535, Metabolic Activation: NONE, Method: STANDARD PLATE",inactive; negative
same,mutagenic call,"Test System: AMES SALMONELLA TYPHIMURIUM, Strain/Indicator: TA1535, Metabolic Activation: RAT, S-9, AROCLOR 1254, Method: STANDARD PLATE",inactive; negative
same,mutagenic call,"Test System: AMES SALMONELLA TYPHIMURIUM, Strain/Indicator: TA1537, Metabolic Activation: NONE, Method: STANDARD PLATE",inactive; negative
same,mutagenic call,"Test System: AMES SALMONELLA TYPHIMURIUM, Strain/Indicator: TA1537, Metabolic Activation: RAT, S-9, AROCLOR 1254, Method: STANDARD PLATE",inactive; negative
same,mutagenic call,"Test System: AMES SALMONELLA TYPHIMURIUM, Strain/Indicator: TA1538, Metabolic Activation: NONE, Method: STANDARD PLATE",inactive; negative
same,mutagenic call,"Test System: AMES SALMONELLA TYPHIMURIUM, Strain/Indicator: TA1538, Metabolic Activation: RAT, S-9, AROCLOR 1254, Method: STANDARD PLATE",inactive; negative
same,mutagenic call,"Test System: E. COLI, Strain/Indicator: WP2, Metabolic Activation: NONE, Method: STANDARD PLATE",inactive; negative
same,mutagenic call,"Test System: E. COLI, Strain/Indicator: WP2, Metabolic Activation: RAT, S-9, AROCLOR 1254, Method: STANDARD PLATE",inactive; negative
same,mutagenic call,"Test System: E. COLI, Strain/Indicator: WP2 UVRA, Metabolic Activation: NONE, Method: STANDARD PLATE",inactive; negative
same,mutagenic call,"Test System: E. COLI, Strain/Indicator: WP2 UVRA, Metabolic Activation: RAT, S-9, AROCLOR 1254, Method: STANDARD PLATE",inactive; negative
Cc1ccc(C(=O)Cl)cc1,mutagenic call,[3],inactive; negative
same,mutagenic call,"Test System: AMES SALMONELLA TYPHIMURIUM, Strain/Indicator: TA98, Metabolic Activation: RAT LIVER S-9, PCB, Method: PREINCUBATION",inactive; negative
same,mutagenic call,[4],active; positive
same,mutagenic call,"Test System: AMES SALMONELLA TYPHIMURIUM, Strain/Indicator: TA100, Metabolic Activation: RAT LIVER S-9, PCB, Method: PREINCUBATION",active; positive
same,mutagenic call,"Test System: AMES SALMONELLA TYPHIMURIUM, Strain/Indicator: TA104, Metabolic Activation: NONE, Method: PREINCUBATION",active; positive
same,mutagenic call,"Test System: AMES SALMONELLA TYPHIMURIUM, Strain/Indicator: TA104, Metabolic Activation: RAT LIVER S-9, PCB, Method: PREINCUBATION",active; positive
same,mutagenic call,"Test System: E.COLI, Strain/Indicator: WP2 UVRA, Metabolic Activation: NONE, Method: PREINCUBATION",active; positive
same,mutagenic call,"Test System: E.COLI, Strain/Indicator: WP2 UVRA, Metabolic Activation: RAT LIVER S-9, PCB, Method: PREINCUBATION",active; positive
Cc1ccc(O)cc1,mutagenic call,"Test System: Ames Salmonella typhimurium, Strain/Indicator: TA98, Metabolic Activation: Hamster, Liver, S-9, Aroclor 1254 (10%), Method: Preincubation",inactive; negative
same,mutagenic call,"Test System: Ames Salmonella typhimurium, Strain/Indicator: TA98, Metabolic Activation: None, Method: Preincubation",inactive; negative
same,mutagenic call,"Test System: Ames Salmonella typhimurium, Strain/Indicator: TA98, Metabolic Activation: Rat, Liver, S-9, Aroclor 1254 (10%), Method: Preincubation",inactive; negative
same,mutagenic call,"Test System: Ames Salmonella typhimurium, Strain/Indicator: TA100, Metabolic Activation: Rat, Liver, S-9, Aroclor 1254 (10%), Method: Preincubation",inactive; negative
same,mutagenic call,"Test System: Ames Salmonella typhimurium, Strain/Indicator: TA1535, Metabolic Activation: Rat, Liver, S-9, Aroclor 1254 (10%), Method: Preincubation",inactive; negative
same,mutagenic call,"Test System: Ames Salmonella typhimurium, Strain/Indicator: TA1537, Metabolic Activation: Rat, Liver, S-9, Aroclor 1254 (10%), Method: Preincubation",inactive; negative
CC(C)CCC(C)Nc1ccc(NC(C)CCC(C)C)cc1 (stereo not given),mutagenic call,"Test System: AMES SALMONELLA TYPHIMURIUM, Strain/Indicator: TA98, Metabolic Activation: HAMSTER, LIVER, S-9, AROCLOR 1254 (10%), Method: PREINCUBATION",inactive; negative
same,mutagenic call,[3],inactive; negative
same,mutagenic call,"Test System: AMES SALMONELLA TYPHIMURIUM, Strain/Indicator: TA98, Metabolic Activation: RAT, LIVER, S-9, AROCLOR 1254 (10%), Method: PREINCUBATION",inactive; negative
same,mutagenic call,"Test System: AMES SALMONELLA TYPHIMURIUM, Strain/Indicator: TA100, Metabolic Activation: HAMSTER, LIVER, S-9, AROCLOR 1254 (10%), Method: PREINCUBATION",inactive; negative
same,mutagenic call,[4],inactive; negative
same,mutagenic call,"Test System: AMES SALMONELLA TYPHIMURIUM, Strain/Indicator: TA100, Metabolic Activation: RAT, LIVER, S-9, AROCLOR 1254 (10%), Method: PREINCUBATION",inactive; negative
same,mutagenic call,"Test System: AMES SALMONELLA TYPHIMURIUM, Strain/Indicator: TA1535, Metabolic Activation: HAMSTER, LIVER, S-9, AROCLOR 1254 (10%), Method: PREINCUBATION",inactive; negative
same,mutagenic call,"Test System: AMES SALMONELLA TYPHIMURIUM, Strain/Indicator: TA1535, Metabolic Activation: NONE, Method: PREINCUBATION",inactive; negative
same,mutagenic call,"Test System: AMES SALMONELLA TYPHIMURIUM, Strain/Indicator: TA1535, Metabolic Activation: RAT, LIVER, S-9, AROCLOR 1254 (10%), Method: PREINCUBATION",inactive; negative
same,mutagenic call,"Test System: AMES SALMONELLA TYPHIMURIUM, Strain/Indicator: TA1537, Metabolic Activation: HAMSTER, LIVER, S-9, AROCLOR 1254 (10%), Method: PREINCUBATION",inactive; negative
same,mutagenic call,"Test System: AMES SALMONELLA TYPHIMURIUM, Strain/Indicator: TA1537, Metabolic Activation: NONE, Method: PREINCUBATION",inactive; negative
same,mutagenic call,"Test System: AMES SALMONELLA TYPHIMURIUM, Strain/Indicator: TA1537, Metabolic Activation: RAT, LIVER, S-9, AROCLOR 1254 (10%), Method: PREINCUBATION",inactive; negative
Cc1cc([N+](=O)[O-])ccc1N,mutagenic call,"End Point: IN VITRO CHROMOSOMAL ABERRATIONS, Test System: CHL CELLS, Metabolic Activation: NONE",active; positive (ploidy changes)
same,mutagenic call,[5],inactive; negative; authors report equivocal results for ploidy changes at 0.25 mg/ml and
same,mutagenic call,"End Point: IN VITRO CHROMOSOMAL ABERRATIONS, Test System: CHL/IU CELLS, Metabolic Activation: NONE",active; positive (numerical aberrations)
same,mutagenic call,"End Point: IN VITRO MICRONUCLEUS, Test System: CHL/IU CELLS, Metabolic Activation: NONE",inactive; negative
same,mutagenic call,"Test System: AMES SALMONELLA TYPHIMURIUM, Strain/Indicator: TA98, Metabolic Activation: RAT, LIVER, S-9, PCB, Method: PREINCUBATION",inactive; negative
same,mutagenic call,[4],inactive; negative
same,mutagenic call,"Test System: AMES SALMONELLA TYPHIMURIUM, Strain/Indicator: TA100, Metabolic Activation: RAT, LIVER, S-9, KANECHLOR 500, Method: PREINCUBATION",inactive; negative
same,mutagenic call,[6],inactive; negative
Nc1cc(N)cc(C(=O)O)c1,mutagenic call,[5],inactive; negative
same,mutagenic call,"End Point: IN VITRO MICRONUCLEUS, Test System: CHL/IU CELLS, Metabolic Activation: RAT, LIVER, S-9, PHENOBARBITAL AND 5,6-BENZOFLAVONE",inactive; negative
same,mutagenic call,[6],active; positive
OC/C=C/Cl,mutagenic call,[2],inactive; negative
same,mutagenic call,"Test System: AMES SALMONELLA TYPHIMURIUM, Strain/Indicator: TA100, Metabolic Activation: RAT, LIVER, S-9, PCB, Method: STANDARD PLATE",active; positive
CSc1cc(SC)c(N)c(C)c1N,mutagenic call,[1],active; positive
COc1ccc(O)c2c(=O)c3c(OC)cc4c(c3oc12)[C@@H]1C=CO[C@@H]1O4,mutagenic call,"Test System: AMES SALMONELLA TYPHIMURIUM, Strain/Indicator: TA98, Metabolic Activation: RAT, LIVER, S-9, PHENOBARBITAL, Method: STANDARD PLATE",inactive; negative
same,mutagenic call,"Test System: AMES SALMONELLA TYPHIMURIUM, Strain/Indicator: TA100, Metabolic Activation: RAT, LIVER, S-9, PHENOBARBITAL, Method: STANDARD PLATE",active; positive
